From PubChem BioAssay AID651772 (Broad Institute, 2012)
Where “and” joins values, the source holds several entries; their conditions need not be identical. Equal entries are not always repeated. Inconclusive results are not listed. Calls of active or inactive are those of the source.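 How the source made its calls: active means compounds whose fitted curve reaches 40% higher CDK2 Ct shift, meaning less CDK2 mRNA, within twice the top dose; inconclusive means flat curve with 30 to 70% opposite effect, or poor fit; inactive means the rest.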

System: not listed separately
Test: suppression of MITF target gene CDK2 mRNA, dose response, orthogonal assay for MITF inhibitor project, cell-based, SK-MEL-5, RT-qPCR, dry powder samples (AID 651772)
Conditions: SK-MEL-5 CDK2 mRNA, RT-qPCR delta-delta-Ct, overnight

Which outcome does the source give for `NC1=C(NS(=O)(=O)c2ccc(Br)s2)C(=O)c2ccccc2C1=O` here?
The outcome was “inactive”.

System: SK-MEL-5 CDK2 mRNA, RT-qPCR delta-delta-Ct, overnight
Test: as above
Conditions: not given

With `O=C1C=C(NS(=O)(=O)c2ccccc2)C(=O)c2ccccc21` as the compound, how does the AC40 read?
The AC40 was 138 nM.

With `COC1=C(Nc2ccccc2)C(=O)c2ccccc2C1=O` as the compound, how does the AC40 read?
Its AC40 is 204 nM.

For `CCN1CCN(C2=C(NC(=O)c3ccccc3)C(=O)c3ccccc3C2=O)CC1`, which AC40 is on record?
The AC40 was 2410 nM.

Which AC40 does the source give for `CC(C)N1CCN(C2=C(Nc3ccc(F)cc3F)C(=O)c3ccccc3C2=O)CC1` here?
The AC40 was 1770 nM.

Which AC40 does the source give for `O=C1C=C(NS(=O)(=O)c2ccc(Br)cc2)C(=O)c2ccccc21` here?
The AC40 was 358 nM.

For `O=C1C(NS(=O)(=O)c2cccs2)=C(c2ccccc2)C(=O)c2ccccc21`, which AC40 is on record?
Its AC40 is 3790 nM.

With `O=C(NC1=C(Cl)C(=O)c2ccccc2C1=O)c1ccccc1` as the compound, how does the AC40 read?
The AC40 was 203 nM.

With `CN1CCN(C2=C(Nc3ccc(F)cc3F)C(=O)c3ccccc3C2=O)CC1` as the compound, how does the AC40 read?
Its AC40 is 2450 nM.

Which AC40 does the source give for `CCN1CCN(C2=C(NS(=O)(=O)c3ccc(Br)cc3)C(=O)c3ccccc3C2=O)CC1` here?
Its AC40 is 14100 nM.

Which AC40 does the source give for `NS(=O)(=O)c1ccc(NC2=CC(=O)c3ccccc3C2=O)cc1` here?
Its AC40 is 141 nM.

Which AC40 does the source give for `NC1=C(NS(=O)(=O)c2ccccc2)C(=O)c2ccccc2C1=O` here?
Its AC40 is 4390 nM.

For `Cc1nc2ccccc2n1/N=C/c1ccc([N+](=O)[O-])s1`, which AC40 is on record?
Its AC40 is 2920 nM.

For `NC1=C(NC(=O)c2ccccc2)C(=O)c2ccccc2C1=O`, which AC40 is on record?
The AC40 was 882 nM.

With `CCN1CCN(C2=C(Nc3ccc(F)cc3F)C(=O)c3ccccc3C2=O)CC1` as the compound, how does the AC40 read?
Its AC40 is 1410 nM.

With `COC1=C(NS(=O)(=O)c2ccccc2)C(=O)c2ccccc2C1=O` as the compound, how does the AC40 read?
Its AC40 is 3500 nM.

For `NC1=C(NS(=O)(=O)c2cccs2)C(=O)c2ccccc2C1=O`, which AC40 is on record?
Its AC40 is 1980 nM.

With `CN1CCN(C2=C(NS(=O)(=O)c3ccc(Br)s3)C(=O)c3ccccc3C2=O)CC1` as the compound, how does the AC40 read?
Its AC40 is 7940 nM.

For `CC(C)N1CCN(C2=C(Nc3ccc(F)cc3)C(=O)c3ccccc3C2=O)CC1`, which AC40 is on record?
Its AC40 is 6510 nM.

With `COC1=C(NS(=O)(=O)c2cccs2)C(=O)c2ccccc2C1=O` as the compound, how does the AC40 read?
Its AC40 is 9340 nM.

For `O=C1C=C(Nc2ccc([N+](=O)[O-])c(C(F)(F)F)c2)C(=O)c2ccccc21`, which AC40 is on record?
Its AC40 is 78.7 nM.

Which AC40 does the source give for `O=C1C(Nc2ccc(Cl)cc2)=C(N2CCCC2)C(=O)c2ccccc21` here?
The AC40 was 9910 nM.

Which AC40 does the source give for `NC1=CC(=O)c2ccccc2C1=O` here?
The AC40 was 300 nM.

With `COC1=C(NS(=O)(=O)c2ccc(Br)cc2)C(=O)c2ccccc2C1=O` as the compound, how does the AC40 read?
The AC40 was 4290 nM.

For `O=C1C(Nc2ccccc2)=C(c2ccccc2)C(=O)c2ccccc21`, which AC40 is on record?
Its AC40 is 7060 nM.

For `O=C1C(Nc2ccc(F)cc2)=C(N2CCCCC2)C(=O)c2ccccc21`, which AC40 is on record?
Its AC40 is 8220 nM.

With `C=CCNC1=C(Cl)C(=O)c2ccccc2C1=O` as the compound, how does the AC40 read?
The AC40 was 1460 nM.

With `O=C1C=C(Nc2ccccc2)C(=O)c2ccccc21` as the compound, how does the AC40 read?
The AC40 was 571 nM and 394 nM.

With `NC1=C(NS(=O)(=O)c2ccc(Br)cc2)C(=O)c2ccccc2C1=O` as the compound, how does the AC40 read?
The AC40 was 9610 nM.

Which AC40 does the source give for `O=C1C=C(NS(=O)(=O)c2cccs2)C(=O)c2ccccc21` here?
The AC40 was 339 nM.
